The record followed here is US20220249637A1, “COMBINATION THERAPY OF A CELL-MEDIATED CYTOTOXIC THERAPY AND AN INHIBITOR OF A PROSURVIVAL BCL2 FAMILY PROTEIN” (Juno Therapeutics, Inc., priority 2019, published 2022).

Experiment [1] relates to cancer cells resistant to CAR T cell-mediated killing. Briefly: T cell-mediated killing of cancer cells by CAR T cells in presence of BCL2 inhibitor. It counts as cell-based. As to conditions: cancers resistant to T cell therapy alone, low doses without activity on tumor alone.
The test system of the next experiment is Granta-519. The experiment is described as follows: NucLight Red target cell killing by live cell imaging. Type of experiment: cell-based. On the procedure: Anti-CD19 CAR-expressing T cell compositions were generated as described in Example 1 and were cultured with a CD19-expressing lymphoma target cell lines, either SUDHL6, WSU-DLCL2, or Granta-519 at an E:T ratio of 2.5:1. The co-cultures were carried out in the presence of 20 nM or 200 nM of the exemplary BCL2 inhibitor, venetoclax. As controls, target tumor cell lines were incubated only in the presence of the inhibitor or the anti-CD19 CAR T cells. Target cells were labeled with NucLight Red (NLR) to permit tracking of target cells by microscopy and target cell killing was monitored by the loss of fluorescent signal over time, substantially as described in Example 1.
In a further experiment, anti-CD19 CAR-expressing T cell compositions, generated as described above, were cultured with the Granta-519 CD19-expressing lymphoma target cell line. Granta-519 cells were engineered with a lentiviral reagent to express NucLight Red (NLR) to permit tracking of target cells by microscopy. […] The anti-CD19 CAR T cells were provided in the co-cultures at the suboptimal dose, and the co-cultures were carried out in the presence of 0, 0.01, 0.1, or 1 μM of the exemplary BCL2 inhibitor venetoclax. For comparison, target tumor cell lines were incubated only in the presence of 0, 0.01, 0.1, or 1 μM of the inhibitor. Red target cell counts were enumerated by live cell imaging and tracked over time.

A further experiment has as its system RL cells. The experiment is described as follows: RL target cell co-culture with CAR T cells and venetoclax (NLR microscopy). It counts as cell-based. As to conditions: with CAR T cells E:T 1:1, 0.1 venetoclax. As for the experimental part:
Anti-CD19 CAR-expressing T cell compositions, generated as described in Example 1, were cultured with the CD19-expressing lymphoma target cell line RL. Target cells were engineered with a lentiviral reagent to express NucLight Red (NLR) to permit tracking of the cells by microscopy. […] The anti-CD19 CART cells were co-cultured with target RL cells at an E:T ratio of 1:1, and the co-cultures were carried out in the presence of 0.1 μM of the exemplary BCL2 inhibitor venetoclax. For comparison, target cells were incubated only in the presence of the CAR T cells or 0.1 μM of the inhibitor.

Experiment [2] relates to RL spheroids. Briefly: RL spheroid 3D tumor model, co-culture for 9 days. It counts as cell-based. On the procedure: The resistance of the RL cell line to CD19-directed CAR T cells was further assessed in a 3D tumor model. An anti-CD19 CAR-expressing T cell composition was generated from a human adult donor, substantially as described in Example 1. RL tumor cells engineered to express NLR were allowed to form spheroids for 72 hours, then co-cultured for 9 days with the anti-CD19 CAR T cells at an E:T ratio of 1:1. A subtherapeutic concentration of the exemplary BCL2 inhibitor venetoclax (0.1 μM) was added at the beginning of co-culture, and tumor volume was measured over time (FIG. 5B).
In a related experiment, spheroids were generated from CD19-expressing RL cells as described, and co-cultured for 9 days with anti-CD19 CAR T cells and increasing concentrations of venetoclax (0.01 μM, 0.1 μM, or 1.0 μM), or with only corresponding concentrations of venetoclax.

The test system of experiment [3] is RL spheroids. The experiment is described as follows: RL spheroids co-cultured with chronically stimulated anti-CD19 CAR T cells. It counts as cell-based. Conditions: 8 days. As for the experimental part:
Anti-CD19 CAR-expressing T cells, generated from healthy donors as described above, were chronically stimulated under conditions to exhaust T cell activity by incubation for 8 days with beads coated in anti-idiotypic (anti-ID) antibody directed against the CAR. After the 8 days of chronic stimulation, the anti-CD19 CAR-expressing T cells were harvested and subsequently co-cultured with RL cells engineered to express NLR for 8 days at an E:T ratio of 1:1. As a control, RL cells were cultured in the absence of anti-CD19 CAR T cells. Subtherapeutic concentrations of the exemplary BCL2 inhibitor venetoclax (0.01 μM or 0.1 μM) were added to the cultures, and the number of cells was assessed over time (FIG. 6A).
In another experiment, spheroids were generated from CD19-expressing RL cells as previously described, and co-cultured for 8 days with anti-CD19 CAR T cells at an E:T ratio of 1:1 and increasing concentrations of venetoclax (0.01 μM, 0.1 μM, or 1.0 μM), or with only corresponding concentrations of venetoclax. As before, the anti-CD19 CAR T cells were chronically stimulated with anti-ID antibody-coated beads prior to co-culture with the RL spheroids. […] Overall, the size of the RL spheroids cultured with both anti-CD19 CAR T cells and venetoclax decreased more, and with lower concentrations of venetoclax, compared to that of RL spheroids cultured with just venetoclax.

Experiment [4] deals with JeKo-1 mantle cell lymphoma cells. The experiment is described as follows: JeKo-1 murine model of mantle cell lymphoma. It counts as in vivo, NOD scid gamma (NSG) mice. On the procedure:
NOD scid gamma (NSG) mice were injected intravenously with 2×10^6 JeKo-1 mantle cell lymphoma cells (Day −7) and treated daily with 12.5, 25, 50, or 100 mg/kg of the exemplary BCL2 inhibitor venetoclax for 21 days (Day 0 through Day 21). Tumor burden (FIG. 11A) and body weight (FIG. 11B) were assessed over the course of treatment.
To determine the effects of venetoclax on anti-CD19 CAR T cells in a venetoclax-resistant murine model of MCL, NSG mice were injected intravenously with 2×10^6 JeKo-1 cells on Day −7, and then treated with intravenous infusions of 1×10^6 anti-CD19 CAR T cells, generated substantially as described in previous Example, on Day −1 and Day 0. Venetoclax was administered daily for 21 days (Day 0 to Day 21) at 6.25, 25, or 100 mg/kg. As a control, a subset of mice were only treated with venetoclax. Tumor burden (FIG. 12A), survival (FIGS. 12B and 12C), and CAR T cell number (FIG. 13) were assessed.

`CC1(C)CCC(CN2CCN(c3ccc(C(=O)NS(=O)(=O)c4ccc(NCC5CCOCC5)c([N+](=O)[O-])c4)c(Oc4cnc5[nH]ccc5c4)c3)CC2)=C(c2ccc(Cl)cc2)C1` [venetoclax]: the “T cell-mediated killing of cancer cells by a T cell therapy (CAR T cells)” value in experiment [1] is reported as “improves T cell-mediated killing of cancer cells”. Moreover, in the experiment with Granta-519 (co-culture with anti-CD19 CAR T cells E:T 2.5:1, 20 or 200 nM venetoclax), the “CD19-directed CAR T cell killing” value is on record as “enhanced”. Also, the target cell number result is on record as “did not substantially impact target cell number” in the experiment with Granta-519 (venetoclax alone, 0.01 μM); “modest effect on target cell number” in the experiment on Granta-519 (venetoclax alone, 0.1 μM and 1.0 μM); “demonstrated a decrease in the number of target cells” in the experiment with Granta-519 (with anti-CD19 CAR T cells E:T 1:1, 0.01 μM venetoclax, compared to 0.01 μM inhibitor only). Further, the tumor cell killing result in the experiment on Granta-519 (venetoclax alone, 20 nM or 200 nM) is “did not substantially impact tumor cell killing”. For the same molecule, the “target cell number / CAR T cell killing” value with Granta-519 (with anti-CD19 CAR T cells E:T 1:1, 0.1 μM and 1.0 μM venetoclax) was “even greater CD19-directed CAR T cell killing”. Further, the target cell killing entry in the experiment with RL cells is “sensitized to the CD19-directed CAR T cell killing”. The “apoptosis of tumor cells” value with RL spheroids [2] (combination of venetoclax and anti-CD19 CAR T cells (data not shown)) was “induce apoptosis of tumor cells”. Besides, the tumor size result in the experiment on RL spheroids [2] (day 9, venetoclax 0.01, 0.1 or 1.0 μM) is “larger concentrations of venetoclax resulted in larger decreases in tumor size”; in the experiment with RL spheroids [3] (venetoclax 0.01, 0.1 or 1.0 μM in the absence of CAR T cells), “decreases in tumor size were only observed with 1 μM venetoclax”; in the experiment with RL spheroids [3] (with chronically stimulated CAR T cells E:T 1:1, venetoclax 0.01, 0.1 or 1.0 μM), “greater decreases in tumor size were seen with increasing concentrations of venetoclax”. In addition, in the experiment on RL spheroids [2] (day 9, with anti-CD19 CAR T cells, venetoclax 0.01, 0.1 or 1.0 μM, compared to venetoclax only), the “size of RL spheroids” value is reported as “decreased substantially more”. Also, the tumor volume entry in the experiment on RL spheroids [2] (with anti-CD19 CAR T cells E:T 1:1, 0.1 μM venetoclax, 9 days) is reported as “resulted in decreased tumor volume”; in experiment [4] (venetoclax 6.25, 25 or 100 mg/kg daily in combination with CAR T cells, vs untreated and venetoclax-only mice), “reduced tumor volume at all measured time points”. Also, in experiment [4] (venetoclax alone, 6.25, 25 or 100 mg/kg daily for 21 days), the tumor burden result is “increased similarly in untreated mice and mice treated with venetoclax alone”. In addition, the “tumor burden (bioluminescence imaging)” value in experiment [4] (venetoclax alone, 12.5, 25, 50 or 100 mg/kg daily for 21 days) is “resistant to treatment with venetoclax alone, regardless of dose level”.
